Where two headings read alike, the source gives them in different places.
What was measured:
Type in all cases: biochemical
MMP-2h = MMP-2h (Homo sapiens (Human), UniProt P08253); assay: Inhibition constant (Ki) on MMP-2h; settings: human MMP-2
From the text: (§1) The inhibition constant Ki of these compounds has been determined according to the protocol described by Devel et al, 2006, J. Biol. Chem. (7).
(§2) In this table I and also in table II below, “h” corresponds to human. All of the compounds have therefore been evaluated on human MMPs.

MMP-3h = MMP-3h (Homo sapiens (Human), UniProt P08254); assay: Inhibition constant (Ki) on MMP-3h; settings: human MMP-3
From the text: as §1, §2

MMP-8h = MMP-8h (Homo sapiens (Human), UniProt P22894); assay: Inhibition constant (Ki) on MMP-8h; settings: human MMP-8
MMP-9h = MMP-9h (Homo sapiens (Human), UniProt P14780); assay: Inhibition constant (Ki) on MMP-9h; settings: human MMP-9
From the text: as §1, §2

MMP-10h = MMP-10h (Homo sapiens (Human), UniProt P09238); assay: Inhibition constant (Ki) on MMP-10h; settings: human MMP-10
MMP-12h = MMP-12h (Homo sapiens (Human), UniProt P39900); assay: Inhibition constant (Ki) on MMP-12h; settings: human MMP-12
MMP-13h = MMP-13h (Homo sapiens (Human), UniProt P45452); assay: Inhibition constant (Ki) on MMP-13h; settings: human MMP-13
From the text: as §1, §2

MMP-14h = MMP-14h (Homo sapiens (Human), UniProt P50281); assay: Inhibition constant (Ki) on MMP-14h; settings: human MMP-14
From the text: as §1, §2

Sequence of MMP-2h (P08253 110-660): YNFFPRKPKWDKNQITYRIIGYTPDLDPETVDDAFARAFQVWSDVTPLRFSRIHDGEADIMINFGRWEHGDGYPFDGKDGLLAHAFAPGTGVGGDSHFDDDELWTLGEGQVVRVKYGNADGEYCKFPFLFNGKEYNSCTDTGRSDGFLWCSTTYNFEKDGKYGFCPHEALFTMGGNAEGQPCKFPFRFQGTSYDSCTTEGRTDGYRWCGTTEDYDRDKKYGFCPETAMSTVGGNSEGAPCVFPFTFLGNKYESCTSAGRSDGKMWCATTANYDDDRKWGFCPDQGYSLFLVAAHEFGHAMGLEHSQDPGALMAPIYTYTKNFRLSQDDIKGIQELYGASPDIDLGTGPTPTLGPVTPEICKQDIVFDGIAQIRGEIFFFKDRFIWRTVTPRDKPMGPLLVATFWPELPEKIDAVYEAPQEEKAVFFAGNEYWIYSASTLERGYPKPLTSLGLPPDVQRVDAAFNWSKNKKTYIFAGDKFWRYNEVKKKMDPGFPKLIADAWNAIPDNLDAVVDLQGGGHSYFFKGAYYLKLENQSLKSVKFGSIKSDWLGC
Sequence of MMP-3h (P08254 100-477): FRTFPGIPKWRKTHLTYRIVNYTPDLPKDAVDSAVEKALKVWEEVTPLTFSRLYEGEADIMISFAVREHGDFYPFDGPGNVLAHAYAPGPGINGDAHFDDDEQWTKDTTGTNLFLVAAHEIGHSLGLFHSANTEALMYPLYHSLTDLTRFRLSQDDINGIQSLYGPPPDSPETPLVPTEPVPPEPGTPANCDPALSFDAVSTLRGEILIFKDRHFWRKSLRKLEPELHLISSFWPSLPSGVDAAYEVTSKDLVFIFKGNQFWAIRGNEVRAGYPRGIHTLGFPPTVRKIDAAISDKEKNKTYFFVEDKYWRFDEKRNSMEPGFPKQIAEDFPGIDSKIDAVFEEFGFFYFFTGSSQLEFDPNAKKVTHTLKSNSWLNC
Sequence of MMP-8h (P22894 101-467): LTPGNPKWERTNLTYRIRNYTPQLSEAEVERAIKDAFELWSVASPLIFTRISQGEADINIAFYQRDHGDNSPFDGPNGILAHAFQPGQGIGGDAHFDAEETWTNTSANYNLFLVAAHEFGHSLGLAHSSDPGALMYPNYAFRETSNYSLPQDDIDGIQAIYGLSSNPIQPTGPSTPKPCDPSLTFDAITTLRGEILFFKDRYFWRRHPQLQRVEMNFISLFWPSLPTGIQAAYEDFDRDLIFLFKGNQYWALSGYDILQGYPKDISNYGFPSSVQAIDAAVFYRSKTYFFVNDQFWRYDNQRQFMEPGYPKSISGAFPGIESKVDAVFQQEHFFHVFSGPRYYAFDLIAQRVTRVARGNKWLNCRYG
Sequence of MMP-9h (P14780 94-707): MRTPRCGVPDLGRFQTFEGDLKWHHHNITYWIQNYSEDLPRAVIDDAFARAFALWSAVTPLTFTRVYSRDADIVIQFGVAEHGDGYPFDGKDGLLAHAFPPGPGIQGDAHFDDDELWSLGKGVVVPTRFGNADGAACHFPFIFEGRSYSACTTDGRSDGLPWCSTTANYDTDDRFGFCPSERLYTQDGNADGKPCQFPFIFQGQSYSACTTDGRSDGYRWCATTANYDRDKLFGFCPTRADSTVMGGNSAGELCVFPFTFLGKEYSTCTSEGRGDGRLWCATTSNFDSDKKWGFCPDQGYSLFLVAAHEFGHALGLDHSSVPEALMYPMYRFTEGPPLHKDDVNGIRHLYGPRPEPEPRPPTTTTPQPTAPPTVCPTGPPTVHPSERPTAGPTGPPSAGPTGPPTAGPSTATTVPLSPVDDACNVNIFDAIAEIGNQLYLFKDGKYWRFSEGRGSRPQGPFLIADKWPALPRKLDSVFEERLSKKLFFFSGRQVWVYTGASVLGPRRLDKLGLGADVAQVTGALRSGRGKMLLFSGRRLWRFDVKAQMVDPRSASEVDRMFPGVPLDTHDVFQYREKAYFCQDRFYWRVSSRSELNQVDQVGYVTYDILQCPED
Sequence of MMP-10h (P09238 99-476): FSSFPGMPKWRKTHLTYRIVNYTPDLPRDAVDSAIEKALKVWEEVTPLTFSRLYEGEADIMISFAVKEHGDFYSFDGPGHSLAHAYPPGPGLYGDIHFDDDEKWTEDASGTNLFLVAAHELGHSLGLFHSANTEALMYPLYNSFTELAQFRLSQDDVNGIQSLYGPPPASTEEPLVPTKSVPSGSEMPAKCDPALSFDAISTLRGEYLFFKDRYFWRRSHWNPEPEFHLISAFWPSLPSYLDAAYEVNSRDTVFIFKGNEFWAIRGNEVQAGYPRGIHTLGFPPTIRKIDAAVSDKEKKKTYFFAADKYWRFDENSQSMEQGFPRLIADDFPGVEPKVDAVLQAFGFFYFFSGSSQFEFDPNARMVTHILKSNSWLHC
Sequence of MMP-12h (P39900 106-470): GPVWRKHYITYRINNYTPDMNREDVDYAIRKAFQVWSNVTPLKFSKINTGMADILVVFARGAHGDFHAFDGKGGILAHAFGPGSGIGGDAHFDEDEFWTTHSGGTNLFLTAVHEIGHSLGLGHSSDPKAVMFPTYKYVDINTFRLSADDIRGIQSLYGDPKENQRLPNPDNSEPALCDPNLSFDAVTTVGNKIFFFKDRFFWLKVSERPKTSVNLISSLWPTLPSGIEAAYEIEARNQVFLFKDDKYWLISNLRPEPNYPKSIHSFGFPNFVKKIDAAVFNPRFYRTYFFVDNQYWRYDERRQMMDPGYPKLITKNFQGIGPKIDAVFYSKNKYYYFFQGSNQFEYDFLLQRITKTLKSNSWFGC

SMILES | Ki (MMP-2h; read-out: Ki MMP-2h) [nM] | Ki (MMP-3h; read-out: Ki MMP-3h) [nM] | Ki (MMP-8h; read-out: Ki MMP-8h) [nM] | Ki (MMP-9h; read-out: Ki MMP-9h) [nM] | Ki (MMP-10h; read-out: Ki MMP-10h) [nM] | Ki (MMP-12h; read-out: Ki MMP-12h) [nM] | Ki (MMP-13h; read-out: Ki MMP-13h) [nM] | Ki (MMP-14h; read-out: Ki MMP-14h) [nM] | Ki (MMP-2h) [nM] | Ki (MMP-3h) [nM] | Ki (MMP-8h) [nM] | Ki (MMP-9h) [nM] | Ki (MMP-10h) [nM] | Ki (MMP-12h) [nM] | Ki (MMP-13h) [nM] | Ki (MMP-14h) [nM]
O=C(O)CC[C@H](NC(=O)CCc1ccc(-c2cccs2)cc1)C(=O)Nc1cccc(CC(=O)O)c1 [Compound 90, (S)-5-(3-(carboxymethyl)phenylamino)-5-oxo-4-(3-(4-(thiophen-2-yl)phenyl)propanamido)pentanoic acid] | 116 | > 1000 | 18 | 284 | 143 | 8 | 366 | 430 |  |  |  |  |  |  |  | 
C[C@H](NC(=O)[C@H](CCC(=O)O)NC(=O)CCc1ccc(-c2ccccc2)cc1)C(N)=O [Compound 47, (S)-5-((S)-1-amino-1-oxopropan-2-ylamino)-4-(3-(biphenyl-4-yl)propanamido)-5-oxopentanoic acid] | > 1000 | > 10000 | 311 | > 1000 | > 1000 | 58 | > 1000 | > 5000 |  |  |  |  |  |  |  | 
NC(=O)[C@H](CCC(=O)O)NC(=O)[C@H](CCCC(=O)O)NC(=O)CCc1ccc(-c2cc(-c3ccccc3)cs2)cc1 [Compound 102, (S)-6-((S)-1-amino-4-carboxy-1-oxobutan-2-ylamino)-6-oxo-5-(3-(4-(4-phenylthiophen-2-yl)phenyl)propanamido)hexanoic acid] |  |  |  |  |  |  |  |  | > 1000 | > 10000 | > 5000 | > 5000 | > 5000 | 56 | 635 | > 10000
NC(=O)[C@@H](CCC(=O)O)NC(=O)[C@@H](CCC(=O)O)NC(=O)CCc1cc(-c2ccc(-c3cccc(Cl)c3)cc2)no1 [Compound 7, (R)-5-amino-4-((R)-4-carboxy-2-(3-(3-(3′-chlorobiphenyl-4-yl)isoxazol-5-yl)propanamido)butanamido)-5-oxopentanoic acid] | 538 | 897 | > 1000 | > 5000 | 111 | 268 | 114 | > 10000 |  |  |  |  |  |  |  | 
NC(=O)[C@H](CO)NC(=O)[C@H](CCC(=O)O)NC(=O)CCc1ccc(-c2cccs2)cc1 [Compound 87, (S)-5-((S)-1-amino-3-hydroxy-1-oxopropan-2-ylamino)-5-oxo-4-(3-(4-(thiophen-2-yl)phenyl)propanamido)pentanoic acid] | 147 | > 10000 | 47 | > 1000 | 742 | 16.4 | > 1000 | > 1000 |  |  |  |  |  |  |  | 
Cn1ccc(-c2ccc(CCC(=O)N[C@@H](CCC(=O)O)C(=O)N[C@@H](CCC(=O)O)C(N)=O)cc2)n1 [Compound 33, (S)-5-amino-4-((S)-4-carboxy-2-(3-(4-(1-methyl-1H-pyrazol-3-yl)phenyl)propanamido)butanamido)-5-oxopentanoic acid] | > 1000 | > 10000 | > 1000 | > 1000 | > 10000 | 797 | 518 | > 1000 |  |  |  |  |  |  |  | 
NC(=O)[C@H](Cc1c[nH]cn1)NC(=O)[C@H](CCC(=O)O)NC(=O)CCc1ccc(-c2cccs2)cc1 [Compound 86, (S)-5-((S)-1-amino-3-(1H-imidazol-4-yl)-1-oxopropan-2-ylamino)-5-oxo-4-(3-(4-(thiophen-2-yl)phenyl)propanamido)pentanoic acid] | 371 | > 10000 | 63 | > 1000 | > 1000 | 34 | > 1000 | > 1000 |  |  |  |  |  |  |  | 
NC(=O)[C@H](CCCC(=O)O)NC(=O)[C@H](CCCC(=O)O)NC(=O)CCc1cc(-c2ccc(-c3cccc(Cl)c3)cc2)no1 [Compound 13, (S)-6-amino-5-((S)-5-carboxy-2-(3-(3-(3′-chlorobiphenyl-4-yl)isoxazol-5-yl)propanamido)pentanamido)-6-oxohexanoïque] |  |  |  |  |  |  |  |  | > 1000 | 575 | 638 | 605 | > 5000 | 348 | 91 | 553
NC(=O)[C@H](CO)NC(=O)[C@H](CCC(=O)O)NC(=O)CCc1ccc(-c2ccc(-c3ccccc3)cc2)cc1 [Compound 68, (S)-5-((S)-1-amino-3-hydroxy-1-oxopropan-2-ylamino)-4-(3-(4′-phenylbiphenyl-4-yl)propanamido)-5-oxopentanoic acid] | 31 | 108 | 227 | > 1000 | 71 | 3.5 | 16.6 | > 1000 |  |  |  |  |  |  |  | 
O=C(O)CC[C@H](NC(=O)CCc1ccc(-c2cccs2)cc1)C(=O)N1CCC[C@@H](CC(=O)O)C1 [Compound 89, (S)-5-((S)-3-(carboxymethyl)piperidin-1-yl)-5-oxo-4-(3-(4-(thiophen-2-yl)phenyl)propanamido)pentanoic acid] | 484 | > 100000 | 94 | > 1000 | > 5000 | 124 | > 1000 | > 1000 |  |  |  |  |  |  |  | 
NC(=O)[C@H](CCC(=O)O)NC(=O)[C@H](CC(=O)O)NC(=O)CCc1cc(-c2ccc(-c3cccc(Cl)c3)cc2)no1 [Compound 9, (S)-5-amino-4-((S)-3-carboxy-2-(3-(3-(3′-chlorobiphenyl-4-yl)isoxazol-5-yl)propanamido)propanamido)-5-oxopentanoic acid] | 91 | 381 | 899 | > 1000 | 520 | 64 | 35 | > 5000 |  |  |  |  |  |  |  | 
NC(=O)[C@H](CC(=O)O)NC(=O)[C@H](CCC(=O)O)NC(=O)CCc1ccc(-c2cccs2)cc1 [Compound 83, (S)-5-((S)-1-amino-3-carboxy-1-oxopropan-2-ylamino)-5-oxo-4-(3-(4-(thiophen-2-yl)phenyl)propanamido)pentanoic acid] | 334 | > 10000 | 49 | > 1000 | 435 | 14.2 | > 1000 | > 1000 |  |  |  |  |  |  |  | 
NC(=O)CC[C@H](NC(=O)[C@H](CCC(=O)O)NC(=O)CCc1ccc(-c2ccccc2)cc1)C(N)=O [Compound 42, (S)-4-(3-(biphenyl-4-yl)propanamido)-5-((S)-1,5-diamino-1,5-dioxopentan-2-ylamino)-5-oxopentanoic acid] |  |  |  |  |  |  |  |  | 448 | > 5000 | 285 | > 1000 | > 1000 | 48 | 884 | > 1000
NC(=O)[C@H](CCC(=O)O)NC(=O)[C@H](CCC(=O)O)NC(=O)CCc1ccc(-c2ccsc2)cc1 [Compound 38, (S)-5-amino-4-((S)-4-carboxy-2-(3-(4-(thiophen-3-yl)phenyl)propanamido)butanamido)-5-oxopentanoic acid] |  |  |  |  |  |  |  |  | 225 | 337 | 52 | 141 | 446 | 12 | 532 | 410
CC(C)C[C@H](NC(=O)[C@H](CCC(=O)O)NC(=O)CCc1ccc(-c2ccccc2)cc1)C(N)=O [Compound 50, (S)-5-((S)-1-amino-4-methyl-1-oxopentan-2-ylamino)-4-(3-(biphenyl-4-yl)propanamido)-5-oxopentanoic acid] | > 1000 | > 50000 | 364 | > 5000 | > 5000 | 76 | > 1000 | > 5000 |  |  |  |  |  |  |  | 
NCCCC[C@H](NC(=O)CCc1ccc(-c2ccc(-c3ccccc3)cc2)cc1)C(=O)N[C@@H](CCC(=O)O)C(N)=O [Compound 73, (S)-5-amino-4-((S)-6-amino-2-(3-(4′-phenylbiphenyl-4-yl)propanamido)hexanamido)-5-oxopentanoic acid] | 541 | 300 | > 1000 | > 10000 | > 1000 | 254 | 97 | > 10000 |  |  |  |  |  |  |  | 
NC(=O)[C@H](CCCC(=O)O)NC(=O)[C@H](CCC(=O)O)NC(=O)CCc1cc(-c2ccc(-c3cccc(Cl)c3)cc2)no1 [Compound 12, (S)-6-amino-5-((S)-4-carboxy-2-(3-(3-(3′-chlorobiphenyl-4-yl)isoxazol-5-yl)propanamido)butanamido)-6-oxohexanoic acid] | 150 | 129 | 452 | > 1000 | 51 | 8.2 | 52 | > 5000 |  |  |  |  |  |  |  | 
NC(=O)[C@H](CCC(=O)O)NC(=O)[C@H](Cc1cnc[nH]1)NC(=O)CCc1ccc(-c2cc(-c3ccccc3)cs2)cc1 [Compound 104, (S)-4-((S)-3-(1H-imidazol-5-yl)-2-(3-(4-(4-phenylthiophen-2-yl)phenyl)propanamido)propanamido)-5-amino-5-oxopentanoic acid] | > 5000 | > 10000 | > 1000 | > 5000 | > 5000 | 40 | > 1000 | > 5000 |  |  |  |  |  |  |  | 

Source: patent publication US8691753B2 (priority 2009, dated 2014)
